Laboratory results from ChEMBL document CHEMBL1142808, “O-Methylglucogalloyl esters: synthesis and evaluation of their antimycotic activity” (2005).
Converted amounts (≈) assume the structure as drawn.

Columns and labels:
Assay type in all cases: functional
Nakaseomyces glabratus [1] = assay: Minimum inhibitory concentration (mixture of alpha and beta) against Candida glabrata DBVPG 3828
[2] = Minimum inhibitory concentration (mixture of alpha and beta) against Issatchenkia orientalis DBVPG 6782; settings: Pichia kudriavzevii
Candida albicans [3] = assay: Minimum inhibitory concentration (mixture of alpha and beta) against Candida albicans DBVPG 6133
Nakaseomyces glabratus [4] = assay: Minimum inhibitory concentration in association with gallic acid (34.0 µg/mL) against Candida glabrata DBVPG 3828
[5] = Minimum inhibitory concentration in association with gallic acid (34.0 µg/mL) against Issatchenkia orientalis DBVPG 6782; settings: Pichia kudriavzevii
[6] = Minimum inhibitory concentration in association with mixture of alpha/beta O-methylgluco-2,3-digalloyl ester (49.8 µg/mL) against Issatchenkia orientalis DBVPG 6782; settings: Pichia kudriavzevii
Candida albicans [7] = assay: Minimum inhibitory concentration in association with mixture of alpha/beta O-methylgluco-2,3-digalloyl ester (49.8 µg/mL) against Candida albicans DBVPG 6133
Nakaseomyces glabratus [8] = assay: Minimum inhibitory concentration in association with methyl gallate (36.8 µg/mL) against Candida glabrata DBVPG 3828
Candida albicans [9] = assay: Minimum inhibitory concentration against Candida albicans DBVPG 6133
Nakaseomyces glabratus [10] = assay: Minimum inhibitory concentration against Candida glabrata DBVPG 3828
Candida albicans [11] = assay: Minimum inhibitory concentration in association with gallic acid (34.0 µg/mL) against Candida albicans DBVPG 6133
Candida albicans [12] = assay: Minimum inhibitory concentration in association with methyl gallate (36.8 µg/mL) against Candida albicans DBVPG 6133
[13] = Minimum inhibitory concentration against Issatchenkia orientalis DBVPG 6782; settings: Pichia kudriavzevii
[14] = Minimum inhibitory concentration in association with methyl gallate (36.8 µg/mL) against Issatchenkia orientalis DBVPG 6782; settings: Pichia kudriavzevii
Nakaseomyces glabratus [15] = assay: Minimum inhibitory concentration in association with mixture of alpha/beta O-methylgluco-2,3-digalloyl ester (49.8 µg/mL) against Candida glabrata DBVPG 3828

| SMILES | MIC (Nakaseomyces glabratus [1]) [µg/mL] | MIC [2] [µg/mL] | MIC (Candida albicans [3]) [µg/mL] | MIC (Nakaseomyces glabratus [4]) [µg/mL] | MIC [5] [µg/mL] | MIC [6] [µg/mL] | MIC (Candida albicans [7]) [µg/mL] | MIC (Nakaseomyces glabratus [8]) [µg/mL] | MIC (Candida albicans [9]) [µg/mL] | MIC (Nakaseomyces glabratus [10]) [µg/mL] | MIC (Candida albicans [11]) [µg/mL] | MIC (Candida albicans [12]) [µg/mL] | MIC [13] [µg/mL] | MIC [14] [µg/mL] | MIC (Nakaseomyces glabratus [15]) [µg/mL] |
| --- | --- | --- | --- | --- | --- | --- | --- | --- | --- | --- | --- | --- | --- | --- | --- |
| COC1O[C@H](CO)[C@@H](O)[C@H](OC(=O)c2cc(O)c(O)c(O)c2)[C@H]1OC(=O)c1cc(O)c(O)c(O)c1 (stereo not given in full) | > 4670 | > 4670 | 1940 (≈ 3890 µM) |  |  |  |  |  |  |  |  |  |  |  |  |
| C[C@@H]1[C@H](O)[C@@H](C)/C=C/C=C/C=C/C=C/C=C/C=C/C=C/[C@H](O[C@@H]2O[C@H](C)[C@@H](O)[C@H](N)[C@@H]2O)C[C@@H]2O[C@](O)(C[C@@H](O)C[C@@H](O)[C@H](O)CC[C@@H](O)C[C@@H](O)CC(=O)O[C@H]1C)C[C@H](O)[C@H]2C(=O)O [AMPHOTERICIN B] |  |  |  | 1 (≈ 1.08 µM) | 8 (≈ 8.66 µM) | 2.05 (≈ 2.22 µM) | 0.05 (≈ 0.0541 µM) | 0.09 (≈ 0.0974 µM) | 1.06 (≈ 1.15 µM) | 1.06 (≈ 1.15 µM) | 0.09 (≈ 0.0974 µM) | 0.09 (≈ 0.0974 µM) | > 100 | 45 (≈ 48.7 µM) | 0.05 (≈ 0.0541 µM) |
